According to patent US9351983B2, “Use of glycerophosphoinositols for the treatment of septic shock” (CONSIGLIO NAZIONALE DELLE RICERCHE, priority 2012, dated 2016):

Assays:
[1] = system: phospholipase A2IVα (PLA2IVα) gene expression; assay: In vitro model of human inflammation: real-time PCR of PLA2IVα; format: cell-based; settings: 300 μM; 4 h, 14 h, 24 h, 48 h; effect mainly at 4 h and 14 h; one donor, preliminary
Procedure: (§1) FIG. 15—Glycerophosphoinositol modulates the kinetic transcriptional profile of genes involved in the regulation of inflammatory response. Human monocytes were purified from one donor and treated according to the in vitro model of human inflammation, previously described, in absence (blue line) or in presence (red line) of 300 μM glycerophosphoinositol. In detail glycerophosphoinositol was added to cells in culture 20 minutes before LPS, IL-10 and TGF-β, that is, again after each wash. Samples were collected at time 4 h, 14 h, 24 h, 48 h; freshly isolated monocytes have been considered as control at time 0 h. Total RNA was extracted from cells by RNeasy kit (Qiagen) and reverse-transcribed to cDNA (QuantiTect Reverse Transcription kit, Qiagen). […] Each sample was measured in triplicate and data were analyzed with Pfaffl methods for comparing relative expression data. The measurement of mRNA expression was expressed as fold-increase over control (time 0 h). […]
(§2) Total RNA was extracted with RNeasy kit (Qiagen) according to the manufacturer's instructions. Both integrity and quality of total RNA were checked by agarose gel electrophoresis and the concentration of each RNA sample was assessed spectrophotometrically. Total RNAs were reverse-transcribed to cDNA (QuantiTect Reverse Transcription kit, Qiagen) with oligo-dT and random primers, according to manufacturer's protocol. […]

TNFα = assay: ELISA of TNFα in medium of LPS-stimulated monocytes; format: cell-based, human; settings: 300 μM
Procedure: (§3) FIG. 5—The inhibitory effects of GroPIns are also evident at the protein expression level. Purified monocytes (4×10^3 cells/sample) were pre-incubated for 20 min at 37° C. in the absence and presence of 300 μM GroPIns, and then for a further 5 h and 24 h without or with 0.1 μg/ml LPS from E. coli. At the end of this incubation, the levels of TNFα, IL-1β and TxB-2 in the medium were assessed by ELISA. In monocytes alone, the protein concentrations were under the assay detection limits at both the times. The data are representative of three independent experiments performed with cells from different donors. Exposure of monocytes to LPS induced a time-dependent increase in the […] levels of all of the cytokines analysed.
(§4) Cellular levels of TNFα, IL-1β and TxB-2 were quantified by enzyme-linked immunosorbent assay (ELISA). Conditioned medium from monocytes was sedimented by centrifugation at 300×g at room temperature for 10 min to eliminate cellular debris. Then, the supernatant was recovered and the concentrations of TNFα, IL-1β and TxB-2 were assessed by ELISA, as specified by the manufacturers (Amersham Pharmacia Biotech (NJ, USA).

IL-1β = assay: ELISA of IL-1β in medium of LPS-stimulated monocytes; format: cell-based, human; settings: 300 μM
Procedure: as §3, §4

[2] = system: interleukin 1β (IL-1β) gene expression; assay: In vitro model of human inflammation: real-time PCR of IL-1β; format: cell-based; settings: 300 μM; 4 h, 14 h, 24 h, 48 h; effect mainly at 4 h and 14 h; one donor, preliminary
Procedure: as §1, §2

[3] = system: inhibitor of kB, α (IκB-α) gene expression; assay: In vitro model of human inflammation: real-time PCR of IκB-α; format: cell-based; settings: 300 μM; 4 h, 14 h, 24 h, 48 h; one donor, preliminary
Procedure: as §1, §2

Question: Which results are given for `O=P(O)(OCC(O)CO)OC1C(O)C(O)C(O)C(O)C1O` (stereo not shown) [GroPIns, glycerophosphoinositol]?
Answer: PLA2IVα mRNA expression [1]: hampered the expression; level of TNFα in the medium (TNFα; 0.1 μg/ml LPS for 5 h): very small effects; level of TNFα in the medium (TNFα; 0.1 μg/ml LPS for 24 h): significantly reduced; level of IL-1β in the medium (IL-1β; 0.1 μg/ml LPS for 5 h): very small effects; level of IL-1β in the medium (IL-1β; 0.1 μg/ml LPS for 24 h): significantly reduced; IL-1β mRNA expression [2]: hampered the expression; IκB-α mRNA expression [3]: affected the expression of IκB-α
